Measurements taken from patent US20110028438A1, “MEDICAL USE OF 3-2,2,2-TRIMETHYLHYDRAZINIUM PROPIONATE SALTS” (JSC GRINDEKS, priority 2007, published 2011).
Marks after values point to notes of the source that are not given here.

Key:
adult male Wistar rats = assay: Myocardial infarction in vivo (coronary artery occlusion and 120 minute reperfusion); set-up: species or system rat; details: for Area of Necrosis, % of Area at Risk / Area of Risk/left ventricle area / Infarct size, % of control: rats, 100 mg/kg by mouth for 14 days; for Area of Necrosis, % of Area at Risk: after 120 minute reperfusion; for Area of Risk/left ventricle area: area at risk expressed as percentage of the left ventricle; for Infarct size, % of control: relative to saline control group; for Therapeutic effect in in vivo myocardial infarction model compared with Meldonium dihydrate: result in words
Method: Experiments were conducted on adult male Wistar rats with initial weight of 300-350 g. During the experiment, the animals were kept in Standard crates in groups of 8. The feed was a standardized diet R70 (LABFOR, Lactamin AB, Sweden). The room temperature was kept at 21-23° C., relative humidity at 65±10%, 12 hour light/darkness cycle.
Rats weighing approximately 300 g were randomly divided into 4 groups of 8 animals each. The first group received saline by mouth (control group), the second received 100 mg/kg Meldonium dihydrate by mouth, the third 100mg/kg Meldonium hydrogen fumarate and the fourth 100 mg/kg Meldonium dihydrogen phosphate received for 14 days.
Rats were anesthetized with sodium pentobarbital (60 mg/kg i.p.). They were intubated and artificially respirated with rodent respirator (Rodent Ventilator 7025, Ugo Basile, (tally) with 15 mL/kg room air at a respiration rate of 55 breaths/min. Thoracic was open on the left side of breastbone by cutting fourth and fifths, if necessary, ribs. The pericard was open and 5/0 polypropylene suture (Surgipro II, Syneture) was passed under the left anterior descending coronary artery and threaded through a small plastic tube to permit reversible occlusion of the coronart artery. Coronary flow was measured using an ultrasound flow detector (HSE) and PowerLab 8/30 system from ADlnstruments.
Occlusion was performed by constricting threads through a plastic tube.
At the end of the 120 minute reperfusion, After reperfusion hearts were excised and retrogradely perfused via aorta at a constant pressure of 50 mm Hg, with oxygenated Krebs-Henseleit buffer (content in mmol/L: NaCl 118, Ca Cl2 2.52, MgCl2 1.64, NaHCO3 24.88, KH2PO4 1.18, glucose 10.0, EDTA 0.05) pH 7.3-7.5 at 37° C. Then after 10 min the left anterior descending coronary artery was relegated and the risk zone was delineated with 4 mL of 0.1% methylene blue solution in Krebs-Henseleit buffer infused via the aorta root. Hearts were sectioned transversely from the apex to the base of 2 mm thickness and incubated in 1% triphenyl-tetrazolium chloride in phosphate buffer (pH 7.4, 37° C.) for 10 minutes to stain viable tissue red and necrotic tissue white. Afterward, the right ventricle was cut off and photos of the left-ventricle slices were made with a Minolta 7D photo camera. Computerized planemetric analysis of photographs was performed using Image-Pro Plus 4.5.1 software to determine the area at risk (AR) and area of necrosis (AN) expressed as percentage of the left ventricle (LV). Obtained values were then used to calculate the infarct size (IS) as percentage of risk area according to formula: […]

[1] = as disclosed in EP 1667960 A; cited from earlier work

Compound | Area of Necrosis, % of Area at Risk (adult male Wistar rats) | Area of Risk/left ventricle area (adult male Wistar rats) | Infarct size, % of control (adult male Wistar rats) | Therapeutic effect in in vivo myocardial infarction model compared with Meldonium dihydrate (adult male Wistar rats) | Stability comparatively with Meldonium dihydrate [1]
C[N+](C)(C)NCCC(=O)[O-] [Meldonium dihydrate, 3-(2,2,2-Trimethylhydrazinium) propionate dihydrate, reference compound] | 64.0 ± 2.7 % of Area at Risk | 58.0 ± 2.2 | 99.0 ± 4.2 % of control |  | 
C[N+](C)(C)NCCC(=O)O.O=P([O-])(O)O [Meldonium dihydrogen phosphate, 3-(2,2,2-trimethylhydrazinium) propionate dihydrogen phosphate] | 50.9 ± 2.6*^,# % of Area at Risk | 57.0 ± 3.0 | 79.0 ± 4.1*^,# % of control | statistically better therapeutically effect than Meldonium dihydrate | more stable substance comparatively with Meldonium dihydrate
C[N+](C)(C)NCCC(=O)O.O=C([O-])/C=C/C(=O)O [Meldonium hydrogen fumarate, 3-(2,2,2-trimethylhydrazinium) propionate hydrogen fumarate] | 52.2 ± 4.3 % of Area at Risk | 62.0 ± 3.5 | 81.0 ± 6.6 % of control | more effective as Meldonium dihydrate | more stable substance comparatively with Meldonium dihydrate
